Assay results from patent US11964973B2 (priority 2019, dated 2024).
Like-named read-outs stand apart in the source and are kept apart here.

Tested on: human venous whole blood, CD8 positive population (pERK)
Experiment: DGK human whole blood pERK assay
Type: cell-based
Protocol: Assay 11: DGK Human Whole Blood pERK Assay
Human whole blood ERK phosphorylation assay was performed with human venous whole blood obtained from healthy donors (drawn with Heparin as anti-coagulant). […] Heparinized human whole blood was added to the compound plate at 9 μL per well and incubated for one hour at 37° C. in a humidified 95%, air/5% CO2 incubator. After one hour of compound incubation, 1 μL of human anti-CD3 antibody (in-house) in the presence of cross-linking antibody goat anti-mouse IgG (4 μg/mL) was added to the well at 1 μg/mL final concentration for stimulation of pathway and additionally incubated for 15 minutes at 37° C. […] Samples analyzed using the Intellicyt® iQue Screener PLUS. The pERK activation was quantitated by the percentage of pERK positive population within CD8 positive population.

[1] = read-out: DGK HWB, human whole blood pERK
[2] = human whole blood pERK, read-out: DGK HWB
[3] = Homo sapiens, CD8 positive, human whole blood pERK, read-out: DGK HWB

Row | SMILES | EC50 [1] [µM] | EC50 [2] [µM] | also measured
1 | CC(C)Oc1ccc(OC2C[C@H](C)N(c3nc(=O)n(C)c4ccc(C#N)nc34)C[C@H]2C)nc1 (stereo partly drawn) [Example 250, 4-((2S,5R)-4-((5-isopropoxypyridin-2-yl)oxy)-2,5-dimethylpiperidin-1-yl)-1-methyl-2-oxo-1,2-dihydropyrido[3,2-d]pyrimidine-6-carbonitrile] | 2.1 | – | –
2 | CCO[C@H]1CN(c2cc(=O)n(C)c3ccc(C#N)nc23)CC[C@H]1Oc1ccc(OC(C)C)cn1 (relative stereo) [Example 372, cis-8-(3-Ethoxy-4-((5-isopropoxypyridin-2-yl)oxy)piperidin-1-yl)-5-methyl-6-oxo-5,6-dihydro-1,5-naphthyridine-2-carbonitrile] | – | 18 | –
3 | CC[C@@H]1CN(c2cc(=O)n(C)c3ccc(C#N)nc23)[C@H](C)C[C@H]1Oc1ccc(OC(C)C)cn1 [Example 297, 8-((2R,4R,5R)-5-ethyl-4-((5-isopropoxypyridin-2-yl)oxy)-2-methylpiperidin-1-yl)-5-methyl-6-oxo-5,6-dihydro-1,5-naphthyridine-2-carbonitrile] | – | – | EC50 (Homo sapiens, CD8 positive, read-out: DGK HWB, human whole blood pERK): 0.68 µM
4 | Cc1ccc(O[C@@H]2C[C@H](C)N(c3cc(=O)n(C)c4ccc(C#N)nc34)C[C@@H]2C)cc1 [Example 312, 8-((2S,4R,5S)-2,5-dimethyl-4-(p-tolyloxy)piperidin-1-yl)-5-methyl-6-oxo-5,6-dihydro-1,5-naphthyridine-2-carbonitrile] | – | – | EC50 [3]: 6 µM
5 | CCO[C@H]1CN(c2cc(=O)n(C)c3ccc(C#N)nc23)CC[C@@H]1Oc1ccc2oc(C)nc2c1 [Example 355, 8-((3S,4S)-3-ethoxy-4-((2-methylbenzo[d]oxazol-5-yl)oxy)piperidin-1-yl)-5-methyl-6-oxo-5,6-dihydro-1,5-naphthyridine-2-carbonitrile] | – | 20 | –
6 | CC[C@@H]1CN(c2cc(=O)n(C)c3ccc(C#N)nc23)[C@H](C)C[C@@H]1Oc1cccc(C(F)(F)F)c1 [Example 309, 8-((2R,4S,5R)-5-ethyl-2-methyl-4-(3-(trifluoromethyl)phenoxy)piperidin-1-yl)-5-methyl-6-oxo-5,6-dihydro-1,5-naphthyridine-2-carbonitrile] | – | – | EC50 [3]: 4 µM
7 | C[C@H]1CN(c2cc(=O)n(C)c3ccc(C#N)nc23)[C@@H](C)CC1N(C)Cc1ccc(F)cc1 (single isomer, unassigned) [Example 333] | 5.5 | – | –
8 | Cn1c(=O)cc(N2CC[C@@H](Oc3cccc(C(F)(F)F)c3)[C@H](OCCN3CCOCC3)C2)c2nc(C#N)ccc21 [Example 391, 5-methyl-8-((3R,4R)-3-(2-morpholinoethoxy)-4-(3-(trifluoromethyl)phenoxy)piperidin-1-yl)-6-oxo-5,6-dihydro-1,5-naphthyridine-2-carbonitrile] | – | – | EC50 (Homo sapiens, CD8 positive, read-out: DGK HWB (human whole blood pERK), human whole blood, CD8 positive population, anti-CD3 stimulation, top concentration 20 μM): 17 µM
9 | CC1CN(c2c(C#N)c(=O)n(C)c3ccc(C#N)nc23)CCC1N(C)C(=O)c1ccc(C(F)(F)F)cc1 (single isomer, unassigned) [Example 293, N-(1-(3,6-dicyano-1-methyl-2-oxo-1,2-dihydro-1,5-naphthyridin-4-yl)-3-methylpiperidin-4-yl)-N-methyl-4-(trifluoromethyl)benzamide] | 20 | – | –
10 | CCO[C@H]1CN(c2cc(=O)n(C)c3ccc(C#N)nc23)CC[C@@H]1Oc1ccc(Cl)c(F)c1 [Example 358, 8-((3S,4S)-4-(4-chloro-3-fluorophenoxy)-3-ethoxypiperidin-1-yl)-5-methyl-6-oxo-5,6-dihydro-1,5-naphthyridine-2-carbonitrile] | 7 | – | –
11 | CCO[C@H]1CN(c2cc(=O)n(C)c3ccc(C#N)nc23)CC[C@@H]1Oc1cc(C(F)(F)F)ccn1 [Example 365, 8-((3S,4S)-3-ethoxy-4-((4-(trifluoromethyl)pyridin-2-yl)oxy)piperidin-1-yl)-5-methyl-6-oxo-5,6-dihydro-1,5-naphthyridine-2-carbonitrile] | – | 0.6 | –
12 | CCO[C@H]1CN(c2cc(=O)n(C)c3ccc(C#N)nc23)CC[C@@H]1Oc1ccccc1C(F)(F)F [Example 345, 8-((3S,4S)-3-ethoxy-4-(2-(trifluoromethyl)phenoxy)piperidin-1-yl)-5-methyl-6-oxo-5,6-dihydro-1,5-naphthyridine-2-carbonitrile] | – | 0.82 | –
